Results on one molecule are retold here after patent publication US20250375437A1, “METHODS FOR IMPROVING COGNITIVE FUNCTION” (priority 2024, published 2025).

The nature of data set [1]: Drug concentration in the plasma of the patients after the end of the treatment. Particulars: human, in vivo, after 12 weeks of 1 to 30 mg dextromethorphan per day. How it is done:
Both groups were treated with drug. The course of treatment for the group taking dextromethorphan and sodium valproate (BDDM group) was 1 to 30 mg of dextromethorphan and 500 to 2500 mg of sodium valproate per day for 12 weeks. The course of treatment for the group taking sodium valproate and placebo (BDPl group) was 500-2500 mg of sodium valproate and placebo per day for 12 weeks. After the end of the treatment, the concentrations of dextromethorphan in the plasma of the patients were about 10-50 ng/ml (0.05-0.2 μM), and the concentrations of sodium valproate in the plasma were about 50-100 μg/dl.

The test system of data set [2] is patients with bipolar II disorder. The data set can be described thus: Continuous Performance Test (Conner's CPT II), sustained attention. In kind it is in vivo, human. Particulars: 12 weeks versus baseline, result in words. The text has this:
The present invention recruited patients diagnosed with bipolar II disorder (BD-II). The patients were diagnosed by psychiatrists using the improved Chinese version of the Schedule of Affective Disorder and Schizophrenia-Life Time (SADS-L) with good inter-rater reliability and the Diagnostic and Statistical Manual of Mental Disorders, Fourth Edition, Text Revision (DSM-IV-TR) to confirm that the patient meets the integration points of bipolar II disorder in the DSM-IV-TR.
The purpose of the test of the present invention was to test whether dextromethorphan (DM) and sodium valproate (trade name: Depakine) could improve the cognitive function of patients. Therefore, the patients with bipolar II disorder in the present invention were divided into two groups: one group was the patients taking dextromethorphan and sodium valproate together (BDDM), and the other group was the patients taking sodium valproate and placebo (BDPl). Before the patients of the two group took the drug, the present invention first used the following evaluation test to perform a basic evaluation of the patients of the two groups.
The present invention used the computer version of Conner's CPT II 20 which was used to detect the sustained attention of the patients. In the reliability of Conner's CPT II, the split-half reliability ranged from 0.66 to 0.95, and the retest reliability after three months was […]. […]

Turning to `COc1ccc2c(c1)[C@]13CCCC[C@@H]1[C@H](C2)N(C)CC3` [dextromethorphan], the concentration at 12 weeks in data set [1] lay within 10 to 50 ng/mL; in data set [1] (value in brackets), 50 to 200 nM. In addition, in data set [2], the “sustained attention (scores of CPT) after the end of the course of treatment” value was “improvement in sustained attention was due to the efficacy of dextromethorphan”.
